{
  "source": "patent US8084486B2",
  "about": "“Substituted arylpyrazoles” (Pfizer Limited, priority 2003, dated 2011)",
  "tested_on": "Ctenocephalides felis",
  "assay": "flea membrane feed screen",
  "parameters": "species or system Ctenocephalides felis (cat flea)",
  "details": "at 30 μg/ml",
  "experimental": "The flea membrane feed screen is used to measure the biological activities of the compounds claimed. The assay involves in vitro testing against Ctenocephalides felis conducted according to the following general procedure.\nFleas are cultured in vitro using dog blood. 25-30 adult Ctenocephalides felis (cat flea) were collected and placed in a test chamber (50 ml polystyrene tube with fine nylon mesh sealing the end). Citrated dog blood was prepared by adding aqueous sodium citrate solution (10 ml, 20% w/v, 20 g sodium citrate in 100 ml water) to dog blood (250 ml). Test compounds were dissolved in dimethylsulfoxide to give a working stock solution of 4 mg/ml. The stock solution (12.5 μl) was added to citrated dog blood (5 ml) to give an initial test concentration of 10 μg/ml. For testing at 30 μg/ml, working stock solutions of 12 mg/ml were prepared.\nCitrated dog blood containing the test compound (5 ml, 10 μg/ml) was placed into a plastic petri dish lid, which was kept at 37° C. on a heated pad. Parafilm was stretched over the open top to form a tight membrane for the fleas to feed through. The test chamber containing the fleas was placed carefully onto the parafilm membrane and the fleas commenced feeding. […]\nThe fleas were observed and the percentage of fleas killed recorded. […]",
  "data": [
    {"smiles": "N#Cc1nn(-c2c(Cl)cc(C(F)(F)F)cc2Cl)c(N)c1C1CC1(Br)Br", "note": "(stereo not shown) [5-amino-3-cyano-4-(2,2-dibromocyclopropyl)-1-(2,6-dichlorophenyl-4-trifluoromethyl-)pyrazole]", "values": [
      {"measurement": "activity in the ED80 flea screen", "value": "inactive"}
    ]}
  ]
}
